Test results: patent US20240336642A1 (The General Hospital Corporation, priority 2021, published 2024)

How the values were obtained:
Human 12/15-LOX HEK = Human 12/15-LOX HEK (Homo sapiens (Human), UniProt P16050); experiment: Human 12/15-LOX HEK EC50; assay type: cell-based
COX-1 = experiment: Selectivity versus COX-1; assay type: biochemical
12-LOX = 12-LOX (Homo sapiens (Human), UniProt P18054); experiment: Selectivity versus 12-LOX; assay type: biochemical
[1] = system: experimental stroke model in mice (MCAO); experiment: Long-term outcome after MCAO: corner test; assay type: in vivo, mouse; conditions: 40 mg/kg i.v. 2 hours post reperfusion
Method: (§1) Long-term outcome experiment: 40 mg/kg cmpd. 1 delivered I.V. 2 hours post reperfusion, same as short term, compared to vehicle (10% solutol/90% PEG400). 45 mice operated, and 27 survived, mice were sacrificed on day 30.

[2] = system: experimental stroke model in mice (MCAO); experiment: Long-term outcome after MCAO: foot fault test; assay type: in vivo, mouse; conditions: 40 mg/kg i.v. 2 hours post reperfusion
Method: as §1

15-LOX2 = 15-LOX2 (Homo sapiens (Human), UniProt O15296); experiment: Selectivity versus 15-LOX2; assay type: biochemical
Chain of 15-LOX2 (O15296 whole entry): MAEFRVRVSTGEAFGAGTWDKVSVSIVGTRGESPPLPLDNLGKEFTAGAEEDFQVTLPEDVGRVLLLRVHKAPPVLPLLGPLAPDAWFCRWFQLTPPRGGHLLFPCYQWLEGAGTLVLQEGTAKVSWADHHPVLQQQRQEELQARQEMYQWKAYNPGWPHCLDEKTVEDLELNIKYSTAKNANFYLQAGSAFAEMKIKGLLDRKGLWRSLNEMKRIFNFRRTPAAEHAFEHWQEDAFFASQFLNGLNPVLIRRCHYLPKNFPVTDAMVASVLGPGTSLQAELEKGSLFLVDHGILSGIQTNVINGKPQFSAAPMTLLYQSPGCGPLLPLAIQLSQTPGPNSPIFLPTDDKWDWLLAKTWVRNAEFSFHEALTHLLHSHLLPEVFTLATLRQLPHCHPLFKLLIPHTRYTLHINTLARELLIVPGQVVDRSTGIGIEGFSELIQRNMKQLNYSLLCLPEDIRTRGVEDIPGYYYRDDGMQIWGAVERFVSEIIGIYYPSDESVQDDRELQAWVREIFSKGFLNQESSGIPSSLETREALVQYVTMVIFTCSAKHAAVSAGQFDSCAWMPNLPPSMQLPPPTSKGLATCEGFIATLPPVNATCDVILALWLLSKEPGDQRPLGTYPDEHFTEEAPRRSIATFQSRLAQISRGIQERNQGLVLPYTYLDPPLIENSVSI

Mouse 12/15-LOX E. coli = Mouse 12/15-LOX E. coli (Mus musculus (Mouse), UniProt P39654); experiment: Mouse 12/15-LOX E. coli IC50; assay type: biochemical
Chain of Mouse 12/15-LOX E. coli (P39654 whole entry): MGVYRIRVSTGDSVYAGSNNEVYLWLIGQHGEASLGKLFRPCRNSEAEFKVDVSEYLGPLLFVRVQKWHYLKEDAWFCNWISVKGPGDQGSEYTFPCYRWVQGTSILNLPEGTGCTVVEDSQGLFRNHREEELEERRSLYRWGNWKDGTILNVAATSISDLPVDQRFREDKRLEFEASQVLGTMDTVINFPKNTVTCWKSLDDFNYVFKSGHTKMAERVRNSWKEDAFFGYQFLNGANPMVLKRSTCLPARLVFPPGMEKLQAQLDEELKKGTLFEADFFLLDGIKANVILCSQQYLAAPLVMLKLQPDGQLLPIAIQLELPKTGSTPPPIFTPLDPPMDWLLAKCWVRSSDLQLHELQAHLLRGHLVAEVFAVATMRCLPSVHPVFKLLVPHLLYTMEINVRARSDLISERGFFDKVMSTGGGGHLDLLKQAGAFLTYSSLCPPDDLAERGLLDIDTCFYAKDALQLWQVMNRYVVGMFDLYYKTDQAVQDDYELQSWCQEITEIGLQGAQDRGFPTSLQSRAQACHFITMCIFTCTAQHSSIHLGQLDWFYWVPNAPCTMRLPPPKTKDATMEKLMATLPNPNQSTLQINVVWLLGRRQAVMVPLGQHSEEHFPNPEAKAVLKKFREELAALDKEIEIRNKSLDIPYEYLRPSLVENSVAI

SAH wild-type mice = experiment: Subarachnoid hemorrhage (SAH) mouse model; assay type: in vivo; conditions: wild-type mice with SAH
From the text: The effect of the exemplified compounds (which are, e.g., inhibitors of 12/15-LOX as discussed herein) on treating bran injury after subarachnoid hemorrhage can be assessed in a mouse model as described, for example, in Gaberel et al, Stroke, 2019, 50, 520-523, which is incorporated herein by reference in its entirety. Subarachnoid hemorrhage (SAH) is a devastating form of stroke. It may lead to substantial brain injury. The mouse model to study the impact of 12/15-LOX inhibitors on subarachnoid hemorrhage includes C57Bl6 wild-type mice and Alox15 knockout mice. These mice are subjected to SAH using direct blood injection technique. […] Immunohistochemistry, brain edema, blood-brain barrier leakage and functional outcomes were assessed 1 and 3 days after SAH induction. […]
All animal experiments were performed following protocols approved by the Massachusetts General Hospital Institutional Animal Care and Use Committee in accordance with the National Institutes of Health Guide for the Care and Use of Laboratory Animals. […] Sample sizes were evaluated as follows: based on prior experience, coefficients of variation around 35% between mice are expected. […]
Except the mice used for IHC 24 h after SAH induction, all mice were assessed at 72 hours using a 4-point Neuroscore scale, a 18 point Neuroscore scale, and by evaluating spontaneous activity. […]

[3] = system: experimental stroke model in mice (MCAO); experiment: Long-term outcome after MCAO: Garcia score; assay type: in vivo, mouse; conditions: 40 mg/kg i.v. 2 hours post reperfusion
Method: as §1

[4] = system: experimental stroke model in mice (MCAO); experiment: Long-term outcome after MCAO: Y maze; assay type: in vivo, mouse; conditions: 40 mg/kg i.v. 2 hours post reperfusion, versus vehicle
Method: as §1

COX-2 = COX-2 (Homo sapiens (Human), UniProt P35354); experiment: Selectivity versus COX-2; assay type: biochemical
Chain of COX-2 (P35354 18-604): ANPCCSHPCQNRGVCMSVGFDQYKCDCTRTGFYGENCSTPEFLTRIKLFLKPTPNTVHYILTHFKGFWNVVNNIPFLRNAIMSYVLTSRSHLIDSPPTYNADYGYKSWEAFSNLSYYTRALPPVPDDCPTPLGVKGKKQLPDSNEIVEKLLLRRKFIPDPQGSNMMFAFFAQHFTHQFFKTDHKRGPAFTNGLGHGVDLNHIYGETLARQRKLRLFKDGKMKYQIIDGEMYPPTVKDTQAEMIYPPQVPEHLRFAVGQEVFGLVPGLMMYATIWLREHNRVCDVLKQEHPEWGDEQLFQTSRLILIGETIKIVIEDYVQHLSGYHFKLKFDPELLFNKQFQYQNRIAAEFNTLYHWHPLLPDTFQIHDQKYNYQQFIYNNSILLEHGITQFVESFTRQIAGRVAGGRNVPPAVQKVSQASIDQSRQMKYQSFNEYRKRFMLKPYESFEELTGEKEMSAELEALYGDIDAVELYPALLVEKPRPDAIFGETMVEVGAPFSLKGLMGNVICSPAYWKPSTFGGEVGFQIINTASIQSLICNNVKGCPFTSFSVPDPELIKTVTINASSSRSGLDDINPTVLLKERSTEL

[5] = Solubility in formulation vehicles (Solutol HS-15/PEG400, Captisol); assay type: physicochemical; conditions: 10% Solutol/90% PEG400
Method: Combinations of Solutol HS-15 (also known as Kolliphor HS-15) with PEG400 provided a good vehicle to solubilize the tested compounds. Specifically, 10% Solutol/90% PEG400 was used to prepare 20 mg/ml solutions of compound 1, compound 44, and compound 32. 10% Solutol/15% H2O/[…] led to 10 mg/ml solutions of the tested compounds.
20 mg/ml were obtained in 20% Captisol, allowing for intravenous delivery in the mouse stroke model.

[6] = Aqueous solubility of exemplified compounds (Example 3); assay type: physicochemical; conditions: aqueous solubility
5-LOX = 5-LOX (Homo sapiens (Human), UniProt P09917); experiment: Selectivity versus 5-LOX; assay type: biochemical
Chain of 5-LOX (P09917 whole entry): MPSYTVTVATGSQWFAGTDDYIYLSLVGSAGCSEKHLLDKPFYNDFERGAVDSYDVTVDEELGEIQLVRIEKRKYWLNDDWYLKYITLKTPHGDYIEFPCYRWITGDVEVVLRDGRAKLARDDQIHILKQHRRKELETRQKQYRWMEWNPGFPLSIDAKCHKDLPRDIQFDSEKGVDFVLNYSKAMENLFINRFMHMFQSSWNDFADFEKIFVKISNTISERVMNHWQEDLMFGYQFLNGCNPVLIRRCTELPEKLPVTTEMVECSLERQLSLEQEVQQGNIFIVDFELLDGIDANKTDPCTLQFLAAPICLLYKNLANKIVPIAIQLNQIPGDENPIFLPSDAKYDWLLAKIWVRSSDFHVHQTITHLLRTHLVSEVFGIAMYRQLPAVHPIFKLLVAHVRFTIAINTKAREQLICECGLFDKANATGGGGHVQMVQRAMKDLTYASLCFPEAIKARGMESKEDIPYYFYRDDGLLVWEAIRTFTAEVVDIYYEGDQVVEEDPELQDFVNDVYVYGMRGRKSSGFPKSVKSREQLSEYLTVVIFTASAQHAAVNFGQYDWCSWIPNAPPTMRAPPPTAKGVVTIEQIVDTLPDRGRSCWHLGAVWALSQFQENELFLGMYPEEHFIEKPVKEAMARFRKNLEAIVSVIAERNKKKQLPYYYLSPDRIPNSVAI

Chain of 12-LOX (P18054 whole entry, the tested form may be a part): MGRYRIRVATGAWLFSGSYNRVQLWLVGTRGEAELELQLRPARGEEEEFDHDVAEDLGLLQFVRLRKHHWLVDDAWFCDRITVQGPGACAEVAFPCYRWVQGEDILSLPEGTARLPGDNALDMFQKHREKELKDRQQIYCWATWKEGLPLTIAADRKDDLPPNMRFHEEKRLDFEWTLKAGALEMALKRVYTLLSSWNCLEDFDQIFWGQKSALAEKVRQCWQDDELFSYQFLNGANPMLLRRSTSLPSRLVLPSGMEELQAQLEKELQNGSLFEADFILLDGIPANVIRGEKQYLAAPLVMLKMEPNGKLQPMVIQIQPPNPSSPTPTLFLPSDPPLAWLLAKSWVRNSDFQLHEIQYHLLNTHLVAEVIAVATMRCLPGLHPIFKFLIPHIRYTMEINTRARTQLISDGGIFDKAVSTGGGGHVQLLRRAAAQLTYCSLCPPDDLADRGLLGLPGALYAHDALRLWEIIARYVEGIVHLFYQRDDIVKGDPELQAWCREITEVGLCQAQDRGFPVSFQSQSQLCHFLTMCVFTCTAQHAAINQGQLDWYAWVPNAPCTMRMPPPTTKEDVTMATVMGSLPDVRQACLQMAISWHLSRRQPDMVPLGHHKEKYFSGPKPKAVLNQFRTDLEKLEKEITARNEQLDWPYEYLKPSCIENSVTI
Chain of Human 12/15-LOX HEK (P16050 whole entry): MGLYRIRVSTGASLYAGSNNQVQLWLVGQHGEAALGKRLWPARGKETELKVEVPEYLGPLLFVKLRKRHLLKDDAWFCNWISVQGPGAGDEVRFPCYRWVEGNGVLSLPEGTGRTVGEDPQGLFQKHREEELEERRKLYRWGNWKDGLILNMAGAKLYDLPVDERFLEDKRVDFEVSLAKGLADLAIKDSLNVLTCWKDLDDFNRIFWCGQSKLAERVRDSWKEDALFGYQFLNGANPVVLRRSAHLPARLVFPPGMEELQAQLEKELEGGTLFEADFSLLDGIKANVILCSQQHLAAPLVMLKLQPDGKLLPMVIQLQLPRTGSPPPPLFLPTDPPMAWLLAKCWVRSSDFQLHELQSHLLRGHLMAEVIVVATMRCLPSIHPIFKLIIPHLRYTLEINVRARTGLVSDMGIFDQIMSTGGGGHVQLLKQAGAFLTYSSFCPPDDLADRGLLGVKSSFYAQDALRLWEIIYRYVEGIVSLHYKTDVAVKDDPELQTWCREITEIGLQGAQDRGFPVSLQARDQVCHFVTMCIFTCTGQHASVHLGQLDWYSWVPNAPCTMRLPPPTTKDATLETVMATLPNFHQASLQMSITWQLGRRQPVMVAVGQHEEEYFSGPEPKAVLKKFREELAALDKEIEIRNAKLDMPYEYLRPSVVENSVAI

CNc1oc(-c2cc(Cl)cc(Cl)c2Cl)nc1C#N [Compound 1, 5-(methylamino)-2-(2,3,5-trichlorophenyl) oxazole-4-carbonitrile]
EC50 (Human 12/15-LOX HEK): 920 nM
selectivity over COX-1 (COX-1): > 400 fold
selectivity over 12-LOX (12-LOX): > 400 fold
Corner test, improvement compared to vehicle treatment ([1]; Week 1): 68.7%
Corner test, improvement compared to vehicle treatment ([1]; Week 4): 75.4%
Foot fault test, improvement compared to vehicle treatment ([2]; Week 1): 61.7%
Foot fault test, improvement compared to vehicle treatment ([2]; Week 4): 77.0%
selectivity over 15-LOX2 (15-LOX2): > 400 fold
IC50 (Mouse 12/15-LOX E. coli): 180 nM
Mouse 12/15-LOX E. coli % max (Mouse 12/15-LOX E. coli): 82%
Neuronal cell death after SAH (SAH wild-type mice): reduced
Garcia score, improvement compared to vehicle treatment ([3]; Day 3): 23.8%
Garcia score, improvement compared to vehicle treatment ([3]; Week 4): 68.5%
Y maze % alternation [4]: no significant differences
Y maze entry number [4]: no difference between treatment groups
selectivity over COX-2 (COX-2): > 400 fold
solution concentration achieved [5]: 20 mg/mL
Sol [6]: + (“+” < 10 μM)
selectivity over 5-LOX (5-LOX): > 400 fold
